Experimental data as given in patent US9193733B2, “Piperidinylcyclobutyl substituted pyrrolopyridine and pyrrolopyrimidine derivatives as JAK inhibitors” (Incyte Corporation, priority 2012, dated 2015).

Experiments:
Type in all cases: biochemical
[1] = target: T1, human JAK1 (a.a. 837-1142) catalytic domain (Homo sapiens, UniProt P23458); assay: In vitro JAK kinase assay (HTRF, phosphorylation of a biotinylated peptide), JAK1; conditions: 1 mM ATP
T1 construct: human JAK1 (a.a. 837-1142) and JAK2 (a.a. 828-1132); His tag (N); made in house; host or cells: insect cells (baculovirus)
T1 sequence (P23458 849-1154): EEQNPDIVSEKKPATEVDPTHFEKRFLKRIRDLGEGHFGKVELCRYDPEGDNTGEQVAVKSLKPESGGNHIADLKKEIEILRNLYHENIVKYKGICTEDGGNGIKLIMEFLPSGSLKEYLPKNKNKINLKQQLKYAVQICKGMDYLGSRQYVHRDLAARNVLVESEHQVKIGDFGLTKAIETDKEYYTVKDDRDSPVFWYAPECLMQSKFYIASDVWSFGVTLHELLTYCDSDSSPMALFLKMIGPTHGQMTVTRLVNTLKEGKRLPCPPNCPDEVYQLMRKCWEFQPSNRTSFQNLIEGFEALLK
Method: (§1) Compounds herein were tested for inhibitory activity of JAK targets according to the following in vitro assay described in Park et al., Analytical Biochemistry 1999, 269, 94-104. The catalytic domains of human JAK1 (a.a. 837-1142) and JAK2 (a.a. 828-1132) with an N-terminal His tag were expressed using baculovirus in insect cells and purified. The catalytic activity of JAK1 and JAK2 was assayed by measuring the phosphorylation of a biotinylated peptide. The phosphorylated peptide was detected by homogenous time resolved fluorescence (HTRF). IC50s of compounds were measured for each kinase in the 40 microL reactions that contain the enzyme, ATP and 500 nM peptide in 50 mM Tris (pH 7.8) buffer with 100 mM NaCl, 5 mM DTT, and 0.1 mg/mL (0.01%) BSA. For the 1 mM IC50 measurements, ATP concentration in the reactions was 1 mM. Reactions were carried out at room temperature for 1 hour and then stopped with 20 μL 45 mM EDTA, 300 nM SA-APC, 6 nM Eu-Py20 in assay buffer (Perkin Elmer, Boston, Mass.). Binding to the Europium labeled antibody took place for 40 minutes and HTRF signal was measured on a Fusion plate reader (Perkin Elmer, Boston, Mass.). See Table A for data related to compounds of the Examples (at 1 mM). Data is indicated as ranges: <20 nM (+), 20 to <150 nM (++), 150 to 500 nM (+++).

[2] = tested on: human JAK1 (a.a. 837-1142) catalytic domain; assay: as above; conditions: ratio of JAK2 IC50 to JAK1 IC50, 1 mM ATP
Method: as §1

[3] = target: T2, human JAK2 (a.a. 828-1132) catalytic domain (Homo sapiens, UniProt O60674); assay: In vitro JAK kinase assay (HTRF, phosphorylation of a biotinylated peptide), JAK2; conditions: 1 mM ATP
T2 construct: human JAK1 (a.a. 837-1142) and JAK2 (a.a. 828-1132); His tag (N); made in house; host or cells: insect cells (baculovirus)
T2 sequence (O60674 828-1132): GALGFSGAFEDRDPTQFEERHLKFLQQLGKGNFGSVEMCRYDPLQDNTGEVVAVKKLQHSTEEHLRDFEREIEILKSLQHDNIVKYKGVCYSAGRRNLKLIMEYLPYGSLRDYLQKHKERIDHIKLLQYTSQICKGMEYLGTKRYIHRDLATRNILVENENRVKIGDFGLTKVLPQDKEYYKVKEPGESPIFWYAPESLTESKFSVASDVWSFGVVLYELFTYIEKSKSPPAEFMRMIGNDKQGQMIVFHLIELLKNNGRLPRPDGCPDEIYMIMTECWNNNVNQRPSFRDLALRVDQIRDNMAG
Method: as §1

| IC50 [1] | JAK2/JAK1 [2] | IC50 [3] | SMILES |
| --- | --- | --- | --- |
| < 20 nM | >10 | 20 to 150 nM | C[C@@H](CO)NCc1cc(OC2CCN([C@H]3C[C@](CC#N)(n4cc(-c5ncnc6[nH]ccc56)cn4)C3)CC2)nc(C(F)(F)F)c1 [Example 1, {trans-3-(4-{[4-({[(1S)-2-hydroxy-1-methylethyl]amino}methyl)-6-(trifluoromethyl)pyridin-2-yl]oxy}piperidin-1-yl)-1-[4-(7H-pyrrolo[2,3-d]pyrimidin-4-yl)-1H-pyrazol-1-yl]cyclobutyl}acetonitrile] |
| < 20 nM | >10 | 20 to 150 nM | C[C@H](CO)NCc1cc(OC2CCN([C@H]3C[C@](CC#N)(n4cc(-c5ncnc6[nH]ccc56)cn4)C3)CC2)nc(C(F)(F)F)c1 [Example 2, {trans-3-(4-{[4-({[(1R)-2-hydroxy-1-methylethyl]amino}methyl)-6-(trifluoromethyl)pyridin-2-yl]oxy}piperidin-1-yl)-1-[4-(7H-pyrrolo[2,3-d]pyrimidin-4-yl)-1H-pyrazol-1-yl]cyclobutyl}acetonitrile] |
| < 20 nM | >10 | 20 to 150 nM | COCCNCc1cc(OC2CCN([C@H]3C[C@](CC#N)(n4cc(-c5ncnc6[nH]ccc56)cn4)C3)CC2)nc(C(F)(F)F)c1 [Example 3, {trans-3-(4-{[4-{[(2-methoxyethyl)amino]methyl}-6-(trifluoromethyl)pyridin-2-yl]oxy}piperidin-1-yl)-1-[4-(7H-pyrrolo[2,3-d]pyrimidin-4-yl)-1H-pyrazol-1-yl]cyclobutyl}acetonitrile] |
| < 20 nM | >10 | 20 to 150 nM | N#CC[C@]1(n2cc(-c3ncnc4[nH]ccc34)cn2)C[C@H](N2CCC(Oc3cc(CN4CC(C#N)C4)cc(C(F)(F)F)n3)CC2)C1 [Example 4, 1-{[2-[(1-{trans-3-(cyanomethyl)-3-[4-(7H-pyrrolo[2,3-d]pyrimidin-4-yl)-1H-pyrazol-1-yl]cyclobutyl}piperidin-4-yl)oxy]-6-(trifluoromethyl)pyridin-4-yl]methyl}azetidine-3-carbonitrile] |
| < 20 nM | >10 | 20 to 150 nM | N#CC[C@]1(n2cc(-c3ncnc4[nH]ccc34)cn2)C[C@H](N2CCC(Oc3cc(CNC4CCOCC4)cc(C(F)(F)F)n3)CC2)C1 [Example 5, [trans-1-[4-(7H-pyrrolo[2,3-d]pyrimidin-4-yl)-1H-pyrazol-1-yl]-3-(4-{[4-[(tetrahydro-2H-pyran-4-ylamino)methyl]-6-(trifluoromethyl)pyridin-2-yl]oxy}piperidin-1-yl)cyclobutyl]acetonitrile] |
| < 20 nM | >10 | 20 to 150 nM | N#CC[C@]1(n2cc(-c3ncnc4[nH]ccc34)cn2)C[C@H](N2CCC(Oc3cc(CN4CC5(COC5)C4)cc(C(F)(F)F)n3)CC2)C1 [Example 6, {trans-3-(4-{[4-(2-oxa-6-azaspiro[3.3]hept-6-ylmethyl)-6-(trifluoromethyl)pyridin-2-yl]oxy}piperidin-1-yl)-1-[4-(7H-pyrrolo[2,3-d]pyrimidin-4-yl)-1H-pyrazol-1-yl]cyclobutyl}acetonitrile] |
| < 20 nM | >10 | 20 to 150 nM | N#CC[C@]1(n2cc(-c3ncnc4[nH]ccc34)cn2)C[C@H](N2CCC(Oc3cc(CN[C@H]4CCOC4)cc(C(F)(F)F)n3)CC2)C1 [Example 7, [trans-1-[4-(7H-pyrrolo[2,3-d]pyrimidin-4-yl)-1H-pyrazol-1-yl]-3-(4-{[4-{[(3S)-tetrahydrofuran-3-ylamino]methyl}-6-(trifluoromethyl)pyridin-2-yl]oxy}piperidin-1-yl)cyclobutyl]acetonitrile] |
| < 20 nM | >10 | 20 to 150 nM | N#CC[C@]1(n2cc(-c3ncnc4[nH]ccc34)cn2)C[C@H](N2CCC(Oc3cc(CN[C@@H]4CCOC4)cc(C(F)(F)F)n3)CC2)C1 [Example 8, [trans-1-[4-(7H-pyrrolo[2,3-d]pyrimidin-4-yl)-1H-pyrazol-1-yl]-3-(4-{[4-{[(3R)-tetrahydrofuran-3-ylamino]methyl}-6-(trifluoromethyl)pyridin-2-yl]oxy}piperidin-1-yl)cyclobutyl]acetonitrile] |
| < 20 nM | >10 | 20 to 150 nM | CC1(NCc2cc(OC3CCN([C@H]4C[C@](CC#N)(n5cc(-c6ncnc7[nH]ccc67)cn5)C4)CC3)nc(C(F)(F)F)c2)COC1 [Example 9, {trans-3-(4-{[4-{[(3-methyloxetan-3-yl)amino]methyl}-6-(trifluoromethyl)pyridin-2-yl]oxy}piperidin-1-yl)-1-[4-(7H-pyrrolo[2,3-d]pyrimidin-4-yl)-1H-pyrazol-1-yl]cyclobutyl}acetonitrile] |
| < 20 nM | >10 | 20 to 150 nM | CC1(NCc2cc(OC3CCN([C@H]4C[C@](CC#N)(n5cc(-c6ncnc7[nH]ccc67)cn5)C4)CC3)nc(C(F)(F)F)c2)CC1 [Example 10, {trans-3-(4-{[4-{[(1-methylcyclopropyl)amino]methyl}-6-(trifluoromethyl)pyridin-2-yl]oxy}piperidin-1-yl)-1-[4-(7H-pyrrolo[2,3-d]pyrimidin-4-yl)-1H-pyrazol-1-yl]cyclobutyl}acetonitrile] |
| < 20 nM | >10 | 20 to 150 nM | N#CC[C@]1(n2cc(-c3ncnc4[nH]ccc34)cn2)C[C@H](N2CCC(Oc3cc(CNC4COC4)cc(C(F)(F)F)n3)CC2)C1 [Example 11, {trans-3-(4-{[4-[(oxetan-3-ylamino)methyl]-6-(trifluoromethyl)pyridin-2-yl]oxy}piperidin-1-yl)-1-[4-(7H-pyrrolo[2,3-d]pyrimidin-4-yl)-1H-pyrazol-1-yl]cyclobutyl}acetonitrile] |
| < 20 nM | >10 | 20 to 150 nM | N#CC[C@]1(n2cc(-c3ncnc4[nH]ccc34)cn2)C[C@H](N2CCC(Oc3cc(CN[C@H]4C[C@H](O)C4)cc(C(F)(F)F)n3)CC2)C1 [Example 12, {trans-3-(4-{[4-{[(trans-3-hydroxycyclobutyl)amino]methyl}-6-(trifluoromethyl)pyridin-2-yl]oxy}piperidin-1-yl)-1-[4-(7H-pyrrolo[2,3-d]pyrimidin-4-yl)-1H-pyrazol-1-yl]cyclobutyl}acetonitrile] |
| < 20 nM | >10 | 20 to 150 nM | CC1(C)CN(Cc2cc(OC3CCN([C@H]4C[C@](CC#N)(n5cc(-c6ncnc7[nH]ccc67)cn5)C4)CC3)nc(C(F)(F)F)c2)C1 [Example 13, {trans-3-(4-{[4-[(3,3-dimethylazetidin-1-yl)methyl]-6-(trifluoromethyl)pyridin-2-yl]oxy}piperidin-1-yl)-1-[4-(7H-pyrrolo[2,3-d]pyrimidin-4-yl)-1H-pyrazol-1-yl]cyclobutyl}acetonitrile] |
| < 20 nM | >10 | 20 to 150 nM | C[C@@H](O)CNCc1cc(OC2CCN([C@H]3C[C@](CC#N)(n4cc(-c5ncnc6[nH]ccc56)cn4)C3)CC2)nc(C(F)(F)F)c1 [Example 14, {trans-3-(4-{[4-({[(2R)-2-hydroxypropyl]amino}methyl)-6-(trifluoromethyl)pyridin-2-yl]oxy}piperidin-1-yl)-1-[4-(7H-pyrrolo[2,3-d]pyrimidin-4-yl)-1H-pyrazol-1-yl]cyclobutyl}acetonitrile] |
